Test results as given in a melting point compilation (Tetko et al.; mined from patent text by program, amines drawn as free bases though some values may be those of a salt).

SMILES	melting point [°C]
COc1cc(C(O)CN(c2nc3ccccc3[nH]2)C(C)CCn2cnc3ccccc32)ccc1OCc1ccccc1 (stereo unspecified)	170 to 180
CC(C)On1nnc2ccc(Cn3ccnc3)cc21	114
CN(CCCCCC(=O)O)c1cnc(-c2ccccc2)c(-c2ccccc2)n1	159 to 160
O=[N+]([O-])c1cccc2[nH]c3c(c12)CCCCCC3	189 to 191
CC(C)c1cccc(-c2ccc(F)cc2)c1OCCO	77 to 78
O=C(Cc1ccccc1C1CCCC1)N[C@H]1CCN(CCc2ccccc2)C1	117 to 119
COc1ccc(C2Sc3c(ccc4ccccc34)N(CCN(C)C)C(=O)C2OC(=O)c2cccnc2)cc1 (stereo unspecified)	144 to 145
O=C(O)CC[C@H]1CC[C@H]2CN[C@H](C(=O)O)C[C@H]2C1 (racemic)	190 to 191
CCCCN(CCCC)c1ccc(C=CC2=C(C#N)C(=C(C#N)C#N)OC2(C)C(F)(F)F)c(OC)c1 (stereo unspecified)	211 to 213
CC(C)C1Sc2c(Cl)cccc2NC1=O (stereo unspecified)	158 to 159
CS(=O)(=O)OCc1cc(-c2ccc3c(c2)CCO3)nn(Cc2ccccc2Cl)c1=O	118 to 119
CCCn1c(=O)cc(S(=O)(=O)CCC)n(Cc2ccc(-c3ccccc3-c3nnn[nH]3)cc2)c1=O	128 to 135
COc1ccc(Nc2nc(O)c3sccc3n2)c(C)c1	246 to 248
Cc1nn(-c2c(Cl)cc(C(F)(F)F)cc2Cl)nc1C(=O)Nc1ccccc1	185 to 186
O=c1c(Cl)c(-c2ccncn2)nc2n1CCCN2C[C@@H](O)c1ccccc1	158 to 160
Cc1c(-c2ccccc2)n(-c2ccccc2Cl)c(-c2ccccc2)cc1=S	271 to 275
c1ccc2c(c1)Cc1c(-c3ccc(OCCN4CCOCC4)cc3)n[nH]c1-2	175 to 176
COc1ccc(C=CC(=O)O)cc1-c1cc2c(cc1OCCCO)C(C)(C)CCC2(C)C	198 to 200
CC1(O)C=CC2C3CCC4=CC(=O)CCC4C3C(c3ccc(-c4ccoc4)cc3)CC21C (stereo unspecified)	179
CC1(C)c2ccccc2-c2ccc(C3c4ccc(-c5ccc(-c6ccc(C=C(C#N)C(=O)O)s6)s5)c5c4C(CCC5)N3c3ccccc3)cc21 (stereo unspecified)	251
CC(C)C(=O)Nc1cccc(-c2ccnc3c(C(=O)c4ccco4)cnn23)c1	189 to 191
Nc1cccc(Oc2ccc(Oc3cccc(N)c3)cc2)c1	98 to 99

SMILES	melting point [°C]
Nc1cccc(Oc2cnc3cc(Cl)ccc3n2)c1	119 to 120
COc1ccc(-c2ccc(C)c(OCC(OC)OC)c2)cc1	39 to 40
N#CC(NC(=O)c1ccccc1)n1cccn1 (stereo unspecified)	169 to 174
COc1ccc(OCc2ccccc2)c2c1OCCO2	70
CC1(C)CCC(N2c3ccccc3Oc3ccc(C(F)(F)F)cc32)=N1	64 to 67
C=C(CCCCCCCCCCCCCCCCCC)C(=O)OC	48 to 50
O=C(O)c1ccc(OCCCCCCc2cccc(OCc3ccccc3)c2OCc2ccccc2)c(Cl)c1	87 to 89
CC(=O)Nc1ccc(-c2ccccc2)cc1[N+](=O)[O-]	128 to 131
O=c1c(=NNc2ccccc2)c(=O)n(-c2ccccc2)c2ccccc2n1CCC1C2CC3CC(C2)CC1C3 (stereo unspecified)	130 to 131
COc1cc2c(cc1OC)C(=CC(N)=O)NCC2	156 to 158
Cc1cn(-c2cccc(C(F)(F)F)c2)nc(-c2ccnn2-c2ccccc2)c1=O	147 to 150
Clc1ccc(N2CCN(Cc3ccc4[nH]ccc4c3)CC2)cc1	175 to 176
NC(=S)NN=C(CNC(=O)Cc1ccccc1)c1ccccc1	170 to 172
Nc1nc2ccccc2c2c1ncn2CCCCCC(=O)c1ccccc1	163 to 165
Cc1cc(NS(=O)(=O)c2ccc(S(C)(=O)=O)cc2)cc(C)c1S(=O)(=O)C[N+](=O)[O-]	192 to 194
Nc1ccc(OCCCl)cc1	91 to 92
COC(=O)c1cc2c3ccccc3n(S(=O)(=O)c3ccccc3)c2s1	195 to 197
Cn1c(=O)n2nc(-c3ccc(Cl)cc3)nc2c2ccccc21	323 to 325
COC(=O)c1ccc(C(=O)Nc2cc3c4c(c2)CCCC4CCC3)cc1	217 to 218
CCCCOCc1cc2c3ccccc3[nH]c(=O)n2n1	170 to 172
O=C(Nc1cccnc1)N1CCc2c1ccc(Cl)c2Cl	> 240

The next lines start with the values.

melting point [°C]	SMILES
115 to 116	COC(=O)c1ccc(Cl)cc1C(=O)c1ccccc1F
> 200	N#Cc1c(N2CCc3ccccc3CC2)nc(CC(N)=O)[nH]c1=O
52 to 54	CCCc1nn(C)c2c(=O)n(CCCOc3ccc(SC(C)(C)C(=O)OCC)cc3)c(CC)nc12
235 to 240	CC(Oc1ccc(OC(C)C(=O)O)cc1)C(=O)O (stereo unspecified)
136 to 137	COCCN1CN(C)C(=O)N(c2nc3c(s2)C(=O)CC(C)(C)C3)C1
188 to 189	CCOC(=O)C=Cc1ccc(NC(=O)Nc2cccnc2)cc1
136 to 137	COC(=O)CCN(C)CCNC(=O)c1nc(Cl)c(N)nc1N
228 to 230	CNC(=O)Cn1c(-c2ccccn2)nc2cccnc21
64 to 67	COCCNc1nc(C)c(C)c(N2CCc3ccccc3C2C)n1 (stereo unspecified)
86 to 87	CCOC(=O)Cn1ncc(-c2ccc(F)cc2)c1-c1ccccc1
97 to 99	CCCc1c(OCCCSc2nnc(SCC(=O)N(C)O)s2)ccc(C(C)=O)c1O
131 to 133	CCOC(=Nc1nc(C)cc(OC)n1)NS(=O)(=O)c1ccccc1OC(F)F
109 to 111	COc1ccc(CCNC(=O)NO)cc1OC
164 to 165	CCOC(=O)C(=CNc1ccc(F)c(N2CCN(C(C)=O)CC2)n1)C(=O)OCC
100 to 101	N#CC1OC12CCN(C(=O)c1ccc(F)c(Cl)c1)CC2 (stereo unspecified)
33 to 35	CCCSc1ccc(C(=O)OC)nc1
176 to 178	NC(=O)[C@H]1CN(c2ccc(I)c(F)c2)C(=O)O1
162 to 165	CC(C)[C@H](NC(=O)OCc1csc(N(C)C)n1)C(=O)N[C@@H](Cc1ccccc1)C[C@H](O)[C@H](Cc1ccccc1)NC(=O)OCc1cncs1
78 to 79	CC(C)(C)OC(=O)N[C@@H]1C[C@H](CO)[C@@H](OC(=O)c2ccccc2)[C@H]1OC(=O)c1ccccc1
191	CO[C@@H]1CN(CCC#N)CC[C@@H]1NC(=O)c1cc(Cl)c(N)c2c1OCC2 (relative stereo)
192 to 208	Cc1ccc2c(c1Cl)C(=O)N(C1(C(N)=O)CCCCC1)C2=O
148 to 150	CC(C)=CCN1CCc2c(sc(N)c2C(=O)c2ccc(I)cc2)C1
134 to 136	CCCCNc1cc(C(=O)O)cc(S(N)(=O)=O)c1-c1ccccc1
202 to 203	C=CCn1c(=O)c2c(nc(/C=C/c3ccc(O)c(OC)c3)n2C)n(CC=C)c1=O
86 to 87	COC(=O)[C@H](CC(C)C)NC(=O)OCC1c2ccccc2-c2ccccc21
108 to 109	CN(C)Cc1cc(Cl)ccc1OCCN(C)Cc1ccc(C(N)=O)cc1
> 280	Cc1c(F)c(N)c(Cl)c2c1c(=O)c(C(=O)O)cn2-c1cc(N)c(F)cc1F
127 to 130	CC(C)=Nc1c2c(nc3ccccc13)CCCC2
